Consider 21 compounds from patent US20210101899A1, “INHIBITORS OF MUTANT ISOCITRATE DEHYDROGENASES AND COMPOSITIONS AND METHODS THEREOF” (IsoCure Biosciences Inc., priority 2016, published 2021).

Common to all, as to type: biochemical
One assay addresses IDH1 (Homo sapiens, UniProt O75874). The assay is described as follows: IDH enzyme assay, NADPH production by diaphorase/resazurin coupled detection. The conditions noted are these: IDH1 WT; pre-incubated with enzyme for 1 h at room temperature; 65 μM Isocitrate+50 μM NADP; 10-dose, 3-fold dilution from 10 μM; read-out: Compound IC50 (nM) IDH1. The method, then: (§1) Compounds were tested against 3 enzymes, as provided below. Compounds were tested in 10-dose IC50 mode with 3-fold serial dilution at a starting concentration of 10 μM. Control Compounds were tested in 10-dose IC50 mode with 3-fold serial dilution starting at 1 mM or 10 mM. Assay Format: The production or depletion of NADPH by IDH enzymes was measured by diaphorase/resazurin coupled detection. Fluorescence measurement: Ex/Em=535/590 by EnVision. Compounds were pre-incubated with enzyme for 1 h at room temperature. Standard substrate: 1500 μM a-Ketoglutarate+15 μM NADPH for IDH1 (R132H). 500 μM a-Ketoglutarate+15 μM NADPH for IDH1 (R132C). 65 μM Isocitrate+50 μM NADP for IDH1.
For orientation: Alamar Blue is a resazurin reagent that responds to reducing activity.

The next assay has as its target IDH1 (R132C) (Homo sapiens, UniProt O75874, R132C). The assay is described as follows: IDH enzyme assay, NADPH depletion by diaphorase/resazurin coupled detection. The conditions noted are these: pre-incubated with enzyme for 1 h at room temperature; 500 μM a-Ketoglutarate+15 μM NADPH; 10-dose, 3-fold dilution from 10 μM; read-out: Compound IC50 (nM) IDH1 (R132C). The method, then: as §1

In another assay the target is IDH1 (R132H) (Homo sapiens, UniProt O75874, R132H). The description is as above. The conditions noted are these: pre-incubated with enzyme for 1 h at room temperature; 1500 μM a-Ketoglutarate+15 μM NADPH; 10-dose, 3-fold dilution from 10 μM; read-out: Compound IC50 (nM) IDH1 (R132H). The method, then: as §1
Sequence of IDH1 (R132H) (O75874 whole entry R132H): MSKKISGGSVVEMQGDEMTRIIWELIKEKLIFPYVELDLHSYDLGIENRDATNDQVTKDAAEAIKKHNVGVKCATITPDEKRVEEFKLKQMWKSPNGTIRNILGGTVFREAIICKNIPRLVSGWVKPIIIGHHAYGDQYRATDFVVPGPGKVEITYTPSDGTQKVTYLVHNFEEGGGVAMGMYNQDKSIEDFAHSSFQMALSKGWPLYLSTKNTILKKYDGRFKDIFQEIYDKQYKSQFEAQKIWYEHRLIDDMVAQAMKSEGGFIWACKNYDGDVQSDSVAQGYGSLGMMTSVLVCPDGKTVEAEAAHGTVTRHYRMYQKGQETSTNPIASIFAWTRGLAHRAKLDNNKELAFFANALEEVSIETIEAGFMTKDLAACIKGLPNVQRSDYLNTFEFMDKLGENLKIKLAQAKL

Sequence of IDH1 (O75874 whole entry): as the sequence (O75874 whole entry R132H) above, with H132R counted along it
Sequence of IDH1 (R132C) (O75874 whole entry R132C): as the sequence (O75874 whole entry R132H) above, with H132C counted along it

With `C=CC(=O)Nc1cc(Cn2nc(C(=O)Nc3cccc(C)c3)c3c2C(C)CN(C(=O)c2ccc[nH]2)C3)ccc1F` (stereo not shown) [ISO-2-1, 1-(3-acrylamido-4-fluorobenzyl)-7-methyl-5-(1H-pyrrole-2-carbonyl)-N-(m-tolyl)-4,5,6,7-tetrahydro-1H-pyrazolo[4,3-c]pyridine-3-carboxamide], the IC50 (usually the point on the concentration scale where inhibition reaches its midpoint) on IDH1 was above 10000 nM; on IDH1 (R132C), 35 nM; at IDH1 (R132H), 18 nM.

For `C=CC(=O)NCc1cc(Cn2nc(C(=O)Nc3cccc(C)c3)c3c2C(C)CN(C(=O)c2ccc[nH]2)C3)ccc1F` (stereo not shown) [ISO-2-2, 1-(3-(acrylamidomethyl)-4-fluorobenzyl)-7-methyl-5-(1H-pyrrole-2-carbonyl)-N-(m-tolyl)-4,5,6,7-tetrahydro-1H-pyrazolo[4,3-c]pyridine-3-carboxamide], the figures for the IC50 on IDH1, on IDH1 (R132C) and on IDH1 (R132H) were above 10000 nM, 152 nM and 33 nM, respectively.

In the case of `C=CC(=O)Nc1cc(Cn2nc(C(=O)Nc3cccc([C@H](C)O)c3)c3c2C(C)CN(C(=O)c2ccc[nH]2)C3)ccc1F` (stereo partly drawn) [ISO-2-3, 1-(3-acrylamido-4-fluorobenzyl)-N-(3-((S)-1-hydroxyethyl)phenyl)-7-methyl-5-(1H-pyrrole-2-carbonyl)-4,5,6,7-tetrahydro-1H-pyrazolo[4,3-c]pyridine-3-carboxamide], the IC50 at IDH1 is at least 10000 nM; at IDH1 (R132C) it was 77 nM; on IDH1 (R132H), 34 nM.

Take `C=CC(=O)Nc1cccc(NC(=O)c2nn(Cc3ccc(F)cc3)c3c2CN(C(=O)c2ccc[nH]2)CC3C)c1` (stereo not shown) [ISO-2-4, N-(3-acrylamidophenyl)-1-(4-fluorobenzyl)-7-methyl-5-(1H-pyrrole-2-carbonyl)-4,5,6,7-tetrahydro-1H-pyrazolo[4,3-c]pyridine-3-carboxamide]: the IC50 at IDH1 is above 10000 nM; on IDH1 (R132C) it was 121 nM; at IDH1 (R132H), 49 nM.

Take `CC1CN(C(=O)c2ccc[nH]2)Cc2c(C(=O)Nc3cccc(NC(=O)CCl)c3)nn(Cc3ccc(F)cc3)c21` (stereo not shown) [ISO-2-5, N-(3-(2-chloroacetamido)phenyl)-1-(4-fluorobenzyl)-7-methyl-5-(1H-pyrrole-2-carbonyl)-4,5,6,7-tetrahydro-1H-pyrazolo [4,3-c]pyridine-3-carboxamide]: the concentration for half-maximal inhibition (IC50) on IDH1 was above 10000 nM; on IDH1 (R132C), 2 nM; at IDH1 (R132H), 3 nM.

Consider `C=CC(=O)N1CCCC(NC(=O)c2nn(Cc3ccc(F)cc3)c3c2CN(C(=O)c2ccc[nH]2)CC3C)C1` (stereo not shown) [ISO-2-6, N-(1-acryloylpiperidin-3-yl)-1-(4-fluorobenzyl)-7-methyl-5-(1H-pyrrole-2-carbonyl)-4,5,6,7-tetrahydro-1H-pyrazolo[4,3-c]pyridine-3-carboxamide], for which the IC50 on IDH1, on IDH1 (R132C) and on IDH1 (R132H) was above 10000 nM throughout.

Regarding `C=CC(=O)Nc1cc(F)ccc1Cn1nc(C(=O)Nc2cccc([C@H](C)O)c2)c2c1C(C)CN(C(=O)c1ccc[nH]1)C2` (stereo partly drawn) [ISO-2-7, 1-(2-acrylamido-4-fluorobenzyl)-N-(3-((S)-1-hydroxyethyl)phenyl)-7-methyl-5-(1H-pyrrole-2-carbonyl)-4,5,6,7-tetrahydro-1H-pyrazolo[4,3-c]pyridine-3-carboxamide], the half-inhibitory concentration (IC50) is above 10000 nM on IDH1, 247 nM on IDH1 (R132C) and 153 nM on IDH1 (R132H).

Consider `C=CC(=O)NCc1cc(F)ccc1Cn1nc(C(=O)Nc2cccc([C@H](C)O)c2)c2c1C(C)CN(C(=O)c1ccc[nH]1)C2` (stereo partly drawn) [ISO-2-8, 1-(2-(acrylamidomethyl)-4-fluorobenzyl)-N-(3-((S)-1-hydroxyethyl)phenyl)-7-methyl-5-(1H-pyrrole-2-carbonyl)-4,5,6,7-tetrahydro-1H-pyrazolo[4,3-c]pyridine-3-carboxamide], for which the half-inhibitory concentration (IC50) is above 10000 nM on IDH1, 154 nM at IDH1 (R132C) and 52 nM at IDH1 (R132H).

Regarding `C=CC(=O)N1CCC(NC(=O)c2nn(Cc3ccc(F)cc3)c3c2CN(C(=O)c2ccc[nH]2)CC3C)C1` (stereo not shown) [ISO-2-9, N-(1-acryloylpyrrolidin-3-yl)-1-(4-fluorobenzyl)-7-methyl-5-(1H-pyrrole-2-carbonyl)-4,5,6,7-tetrahydro-1H-pyrazolo[4,3-c]pyridine-3-carboxamide], the IC50 at IDH1, at IDH1 (R132C) and on IDH1 (R132H) was above 10000 nM throughout.

For `C=CC(=O)N1CC(NC(=O)c2nn(Cc3ccc(F)cc3)c3c2CN(C(=O)c2ccc[nH]2)CC3C)C1` (stereo not shown) [ISO-2-10, N-(1-acryloylazetidin-3-yl)-1-(4-fluorobenzyl)-7-methyl-5-(1H-pyrrole-2-carbonyl)-4,5,6,7-tetrahydro-1H-pyrazolo[4,3-c]pyridine-3-carboxamide], the IC50 at IDH1 was above 10000 nM; on IDH1 (R132C) it was 9500 nM; at IDH1 (R132H), above 10000 nM.

Take `C=CC(=O)Nc1ccc(NC(=O)c2nn(Cc3ccc(F)cc3)c3c2CN(C(=O)c2ccc[nH]2)CC3C)s1` (stereo not shown) [ISO-2-19, N-(5-acrylamidothiophen-2-yl)-1-(4-fluorobenzyl)-7-methyl-5-(1H-pyrrole-2-carbonyl)-4,5,6,7-tetrahydro-1H-pyrazolo[4,3-c]pyridine-3-carboxamide]: the values for the half-maximal inhibitory concentration (IC50) at IDH1, at IDH1 (R132C) and on IDH1 (R132H) were 4780 nM, 35 nM and 5 nM, respectively.

`C=CC(=O)NC1CC(NC(=O)c2nn(Cc3ccc(F)cc3)c3c2CN(C(=O)c2ccc[nH]2)CC3C)C1` (stereo not shown) [ISO-2-20, N-(3-acrylamidocyclobutyl)-1-(4-fluorobenzyl)-7-methyl-5-(1H-pyrrole-2-carbonyl)-4,5,6,7-tetrahydro-1H-pyrazolo[4,3-c]pyridine-3-carboxamide]: the 50% inhibitory concentration (IC50) at IDH1 was above 10000 nM; at IDH1 (R132C), 7370 nM; on IDH1 (R132H), 5480 nM.

Turning to `C=CC(=O)Nc1ccc(NC(=O)c2nn(Cc3ccc(F)cc3)c3c2CN(C(=O)c2ccc[nH]2)CC3C)cc1` (stereo not shown) [ISO-2-25, N-(4-acrylamidophenyl)-1-(4-fluorobenzyl)-7-methyl-5-(1H-pyrrole-2-carbonyl)-4,5,6,7-tetrahydro-1H-pyrazolo[4,3-c]pyridine-3-carboxamide], the IC50 at IDH1 came to 5740 nM; on IDH1 (R132C), 0.8 nM; at IDH1 (R132H), 0.6 nM.

Regarding `C=CC(=O)Nc1ccc(NC(=O)c2nn(Cc3ccc(F)cc3)c3c2CN(C(=O)c2ccc[nH]2)C[C@@H]3C)cc1` [ISO-2-25-S], the values for the IC50 on IDH1 (R132C) and at IDH1 (R132H) were 7720 nM and 1360 nM, respectively.

Consider `C=CC(=O)Nc1cc(NC(=O)c2nn(Cc3ccc(F)cc3)c3c2CN(C(=O)c2ccc[nH]2)CC3C)ccc1Cl` (stereo not shown) [ISO-2-29, N-(3-acrylamido-4-chlorophenyl)-1-(4-fluorobenzyl)-7-methyl-5-(1H-pyrrole-2-carbonyl)-4,5,6,7-tetrahydro-1H-pyrazolo [4,3-c]pyridine-3-carboxamide], for which the half-maximal inhibitory concentration (IC50) at IDH1 (R132C) worked out at 61 nM; on IDH1 (R132H), 14 nM.

Take `C=CC(=O)Nc1cc(NC(=O)c2nn(Cc3ccc(F)cc3)c3c2CN(C(=O)c2ccc[nH]2)CC3C)ccc1OC` (stereo not shown) [ISO-2-30, N-(3-acrylamido-4-methoxyphenyl)-1-(4-fluorobenzyl)-7-methyl-5-(1H-pyrrole-2-carbonyl)-4,5,6,7-tetrahydro-1H-pyrazolo [4,3-c]pyridine-3-carboxamide]: the concentration for half-maximal inhibition (IC50) amounted to 8 nM on IDH1 (R132C) and 1 nM on IDH1 (R132H).

Take `C=CC(=O)Nc1cc(NC(=O)c2nn(Cc3ccc(F)cc3)c3c2CN(C(=O)c2ccc[nH]2)C[C@@H]3C)ccc1OC` [ISO-2-30-S]: the IC50 on IDH1 (R132C) stood at 1180 nM; on IDH1 (R132H), 839 nM.

`C=CC(=O)N1CCc2ccc(NC(=O)c3nn(Cc4ccc(F)cc4)c4c3CN(C(=O)c3ccc[nH]3)CC4C)cc21` (stereo not shown) [ISO-2-31, N-(1-acryloylindolin-6-yl)-1-(4-fluorobenzyl)-7-methyl-5-(1H-pyrrole-2-carbonyl)-4,5,6,7-tetrahydro-1H-pyrazolo[4,3-c]pyridine-3-carboxamide]: the IC50 on IDH1 (R132C) came to 27 nM; on IDH1 (R132H) it was 5 nM.

Turning to `C=CC(=O)Nc1cccc(CNC(=O)c2nn(Cc3ccc(F)cc3)c3c2CN(C(=O)c2ccc[nH]2)CC3C)c1` (stereo not shown) [ISO-2-32, N-(3-acrylamidobenzyl)-1-(4-fluorobenzyl)-7-methyl-5-(1H-pyrrole-2-carbonyl)-4,5,6,7-tetrahydro-1H-pyrazolo[4,3-c]pyridine-3-carboxamide], the values for the 50% inhibitory concentration (IC50) at IDH1 (R132C) and at IDH1 (R132H) were 7500 nM and 3150 nM, respectively.

In the case of `Cc1cccc(NC(=O)c2nn(Cc3ccc(F)c(NC(=O)/C=C/CCl)c3)c3c2CN(C(=O)c2ccc[nH]2)CC3C)c1` (stereo not shown) [ISO-2-36, (E)-1-(3-(4-chlorobut-2-enamido)-4-fluorobenzyl)-7-methyl-5-(1H-pyrrole-2-carbonyl)-N-(m-tolyl)-4,5,6,7-tetrahydro-1H-pyrazolo[4,3-c]pyridine-3-carboxamide], the IC50 worked out at 8 nM on IDH1 (R132C) and 0.5 nM on IDH1 (R132H).

As for `C=CC(=O)Nc1ccc2c(Cn3nc(C(=O)Nc4cccc(C)c4)c4c3C(C)CN(C(=O)c3ccc[nH]3)C4)cccc2c1` (stereo not shown) [ISO-2-38, 1-((6-acrylamidonaphthalen-1-yl)methyl)-7-methyl-5-(1H-pyrrole-2-carbonyl)-N-(m-tolyl)-4,5,6,7-tetrahydro-1H-pyrazolo[4,3-c]pyridine-3-carboxamide], the IC50 was 4 nM at IDH1 (R132C) and 0.5 nM on IDH1 (R132H).
